The record followed here is patent US9410148B2, “Method for constructing libraries of non-standard peptide compounds comprising N-methyl amino acids and other special (non-standard) amino acids and method for searching and identifying active species” (THE UNIVERSITY OF TOKYO, priority 2010, dated 2016).

pKd: −log10 of the molar value. Bridge positions count the residues as written; N and C are the ends. Square brackets hold non-standard residues; d marks the D form. Peptide text beside a SMILES is read from it. NMeF = CN[C@@H](Cc1ccccc1)C(=O)O; NMeS = CN[C@@H](CO)C(=O)O; Sar = CNCC(=O)O Some results are limits rather than exact numbers.

By pKd is commonly meant −log10 of the Kd, conventionally taken in molar units. A high value points to a small Kd.

For experiment [1], the target named is T1, E6AP-HECT (Homo sapiens, UniProt Q05086).
T1 construct: The C terminal domain of E6AP, consisting of about 350 amino acid residues, is called the HECT
T1 sequence (Q05086 495-852 isoform Q05086-2 limits assumed): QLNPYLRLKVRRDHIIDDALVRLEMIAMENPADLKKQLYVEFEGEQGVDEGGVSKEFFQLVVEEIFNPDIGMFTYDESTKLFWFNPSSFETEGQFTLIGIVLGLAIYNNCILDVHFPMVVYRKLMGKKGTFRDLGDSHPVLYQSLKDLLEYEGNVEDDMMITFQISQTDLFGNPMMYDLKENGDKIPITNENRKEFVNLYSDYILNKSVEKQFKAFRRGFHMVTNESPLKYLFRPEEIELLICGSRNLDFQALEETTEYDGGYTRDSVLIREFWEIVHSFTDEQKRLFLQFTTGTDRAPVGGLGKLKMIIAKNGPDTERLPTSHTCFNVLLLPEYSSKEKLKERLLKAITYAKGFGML
The experiment can be described thus: Determination of binding constant using SPR (BIACORE T100, streptavidin sensor chip). As to the method:
The binding constant of MCP11 to E6AP-HECT was analyzed by a surface plasmon resonance using BIACORE T100.
A streptavidin sensor chip (SA chip certified) was used as a sensor chip, an Avi-His-GB1-E6AP-HECT was used as a ligand, and MCP11 was used as an analyte. After E6AP-HECT was fixed to a sensor chip, the KD of MCP11 was 0.5 nM.
A general note: SPR reads the build-up and loss of mass on a sensor chip optically.

The target in experiment [2] is T2, E6AP-HECT (Homo sapiens, UniProt Q05086).
T2 construct: The C terminal domain of E6AP, consisting of about 350 amino acid residues, is called the HECT
The experiment can be described thus: KD / nM. An excerpt: Table printed on a drawing sheet, Figure 5-4
Head of the field: KD / nM
Biotinylated E6AP-HECT was fixed to the streptavidin chip to analyze affinity using the peptides. (Example 7)
First copying reader's note: Brackets drawn under MCP11 and CP11 link the N-terminal CH2CO to the second Cys (cyclic peptides); the raised Me marks and underlining denote N-methyl residues.
Where the first naming reader finds the target: description_of_the_figure: Biotinylated E6AP-HECT was fixed to the streptavidin chip to analyze affinity using the peptides.
T2 sequence (Q05086 whole entry, looked up, the tested form may be a part): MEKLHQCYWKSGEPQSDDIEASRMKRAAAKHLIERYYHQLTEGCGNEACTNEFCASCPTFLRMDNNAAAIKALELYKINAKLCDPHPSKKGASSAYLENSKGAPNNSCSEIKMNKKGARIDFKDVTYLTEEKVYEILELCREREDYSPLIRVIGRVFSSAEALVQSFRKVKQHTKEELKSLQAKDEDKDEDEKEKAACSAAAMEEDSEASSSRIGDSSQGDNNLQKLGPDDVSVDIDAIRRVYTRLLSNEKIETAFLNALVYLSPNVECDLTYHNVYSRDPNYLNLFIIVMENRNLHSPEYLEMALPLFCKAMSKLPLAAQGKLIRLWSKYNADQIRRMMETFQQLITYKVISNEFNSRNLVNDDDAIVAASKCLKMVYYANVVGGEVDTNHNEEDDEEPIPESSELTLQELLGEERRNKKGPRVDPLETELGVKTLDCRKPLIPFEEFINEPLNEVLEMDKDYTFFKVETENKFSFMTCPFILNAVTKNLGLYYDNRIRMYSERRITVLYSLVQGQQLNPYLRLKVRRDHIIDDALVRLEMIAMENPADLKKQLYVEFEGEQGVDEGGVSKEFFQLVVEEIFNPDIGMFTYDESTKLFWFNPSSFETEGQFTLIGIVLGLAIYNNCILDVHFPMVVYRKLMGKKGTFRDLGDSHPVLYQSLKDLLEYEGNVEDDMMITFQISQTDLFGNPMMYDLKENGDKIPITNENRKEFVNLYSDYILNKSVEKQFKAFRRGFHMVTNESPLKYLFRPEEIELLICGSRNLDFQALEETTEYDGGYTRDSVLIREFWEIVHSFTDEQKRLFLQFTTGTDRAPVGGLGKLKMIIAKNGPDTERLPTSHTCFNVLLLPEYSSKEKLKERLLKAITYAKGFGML

On to `CC(C)[C@@H]1NC(=O)[C@H](CC(=O)O)NC(=O)[C@H](CS)NC(=O)[C@@H](Cc2c[nH]c3ccccc23)NC(=O)CSC[C@@H](C(=O)NCC(N)=O)NC(=O)[C@@H]2CCCN2C(=O)[C@H](Cc2ccccc2)N(C)C(=O)[C@H](Cc2ccc(O)cc2)NC(=O)CN(C)C(=O)[C@H](Cc2ccccc2)N(C)C(=O)[C@H](CCCNC(=N)N)NC(=O)CNC(=O)[C@H](CO)N(C)C1=O` [MCP11, Cyclo(-Ac-^DWCDV^MeSGR^MeF^MeGY^MeFPC)G-OH] ({CH2CO}-[dW]CDV[NMeS]GR[NMeF][Sar]Y[NMeF]PCG-NH2; thioether N-13), for which the pKd on E6AP-HECT [1] (surface plasmon resonance, Avi-His-GB1-E6AP-HECT fixed as ligand, peptide as analyte) is 9.30. In the case of `CC(=O)N[C@H](Cc1c[nH]c2ccccc12)C(=O)N[C@@H](CS)C(=O)N[C@@H](CC(=O)O)C(=O)N[C@H](C(=O)N(C)[C@@H](CO)C(=O)NCC(=O)N[C@@H](CCCNC(=N)N)C(=O)N(C)[C@@H](Cc1ccccc1)C(=O)N(C)CC(=O)N[C@@H](Cc1ccc(O)cc1)C(=O)N(C)[C@@H](Cc1ccccc1)C(=O)N1CCC[C@H]1C(=O)N[C@@H](CS)C(=O)NCC(N)=O)C(C)C` [MLP11:, CH3CO-wCDV^MeSGR^MeF^MeGY^MeFPCG-NH2] (Ac-[dW]CDV[NMeS]GR[NMeF][Sar]Y[NMeF]PCG-NH2), the negative logarithm of the Kd (pKd) at E6AP-HECT [2] was 6.00 to 7.00. Turning to `CC(=O)N[C@H](Cc1c[nH]c2ccccc12)C(=O)N[C@@H](CS)C(=O)N[C@@H](CC(=O)O)C(=O)N[C@H](C(=O)N(C)[C@@H](CO)C(=O)NCC(=O)N[C@@H](CCCNC(=N)N)C(=O)N(C)[C@@H](Cc1ccccc1)C(=O)N(C)CC(=O)N[C@@H](Cc1ccc(O)cc1)C(=O)N(C)[C@@H](Cc1ccccc1)C(=O)N1CCC[C@H]1C(=O)N[C@@H](CS)C(=O)NCC(N)=O)C(C)C` [MLP11] (Ac-[dW]CDV[NMeS]GR[NMeF][Sar]Y[NMeF]PCG-NH2), at E6AP-HECT [1] (KD of MLP11 relative to MCP11), the “difference in the binding ability” value is recorded as not below 200 times.
